From ChEMBL document CHEMBL5316328, “Discovery of AXL Degraders with Improved Potencies in Triple-Negative Breast Cancer (TNBC) Cells” (J Med Chem, 2023)
Activity calls are given as the source filed them. The rule behind the calls is not given here.

How the values were obtained:
MDA-MB-231 [1] = assay: Induction of cell cycle arrest in human MDA-MB-231 cells assessed as accumulation of cell at G2/M phase at 100 nM incubated for 24 hrs by PI staining based flow cytometric analysis (reference value: 24.34 to 24.44%); type: functional
MDA-MB-231 [2] = assay: Inhibition of cell invasion in human MDA-MB-231 cells at 3.7 to 100 nM incubated for 18 hrs by transwell assay; type: functional, cell-based; conditions: dose 3.7-100 nM
MDA-MB-231 [3] = assay: Induction of apoptosis in human MDA-MB-231 cells assessed as necrotic cells at 100 nM incubated for 48 hrs by Annexin V-PE staining based flow cytometric analysis (reference value: 2.64 to 3.23%); type: functional
MDA-MB-231 [4] = assay: Induction of apoptosis in human MDA-MB-231 cells assessed as necrotic cells at 33.3 nM incubated for 48 hrs by Annexin V-PE staining based flow cytometric analysis (reference value: 2.64 to 3.23%); type: functional
[5] = target: T1, Protein cereblon/Tyrosine-protein kinase receptor UFO (Homo sapiens, UniProt P30530+Q96SW2); assay: PROTAC activity at CRBN/AXL in human MDA-MB-231 cells assessed as induction of AXL degradation by measuring half-life of AXL incubated upto 20 hrs in the presence of cycloheximide by Western blot analysis; type: cell-based
[6] = target: T1, Protein cereblon/Tyrosine-protein kinase receptor UFO; assay: PROTAC activity at CRBN/AXL in human MDA-MB-231 cells assessed as induction of AXL degradation at 40 nM preincubated with MLN-4924 for 2 hrs followed by compound treatment and measured after 24 hrs by Western blot analysis; type: cell-based
[7] = target: T1, Protein cereblon/Tyrosine-protein kinase receptor UFO; assay: PROTAC activity at CRBN/AXL in human MDA-MB-231 cells assessed as induction of AXL degradation incubated upto 20 hrs in the presence of cycloheximide by Western blot analysis; type: cell-based
MDA-MB-231 [8] = assay: Inhibition of migration in human MDA-MB-231 cells incubated for 18 hrs by transwell assay; type: functional, cell-based; conditions: dose 3.7-100 nM
[9] = Toxicity in Balb/c nude mouse xenografted with human MDA-MB-231 cells assessed as effect on body weight at 10 to 20 mg/kg, ip administered for 22 days and measured 24 hrs post last dose; type: organism-based; conditions: in vivo, 552 h, dose 10-20 mg/kg, time 23 day
[10] = Antitumor activity against patient-derived breast cancer organoid assessed as reduction in cell viability incubated for 120 hrs by CellTiter-Glo 3D assay; type: functional, tissue-based; conditions: Homo sapiens
Homo sapiens [11] = species on record: Homo sapiens; assay: Antitumor activity against patient-derived breast cancer organoid assessed as decrease in organoid size at 5 uM incubated for 120 hrs by bright-field imaging microscopic analysis; type: functional, tissue-based
MDA-MB-231 [12] = assay: Induction of cell cycle arrest in human MDA-MB-231 cells assessed as G0/G1 phase cells at 300 nM incubated for 24 hrs by PI staining based flow cytometric analysis (reference value: 63.32 to 64.94%); type: functional
MDA-MB-231 [13] = assay: Induction of cell cycle arrest in human MDA-MB-231 cells assessed as decrease in cyclin B1 level at 11.1 to 300 nM by Western blot analysis; type: functional, cell-based; conditions: dose 11.1-300 nM
MDA-MB-231 [14] = assay: Induction of apoptosis in human MDA-MB-231 cells assessed as early apoptotic cells at 300 nM incubated for 48 hrs by Annexin V-PE staining based flow cytometric analysis (reference value: 3.95 to 3.74%); type: functional
MDA-MB-231 [15] = assay: Induction of apoptosis in human MDA-MB-231 cells assessed as late apoptotic cells at 100 nM incubated for 48 hrs by Annexin V-PE staining based flow cytometric analysis (reference value: 0.32 to 0.82%); type: functional
[16] = target: T1, Protein cereblon/Tyrosine-protein kinase receptor UFO; assay: PROTAC activity at CRBN/AXL in human MDA-MB-231 cells assessed as induction of AXL degradation at 10 nM preincubated with more than 5 uM of N-(4-((6,7-dimethoxyquinazolin-4-yl)oxy)-3-fluorophenyl)-6-ethyl-1,2-dimethyl-4-oxo-1,4-dihydroquinoline-3-carboxamide for 6 hrs followed by compound treatment and measured after 24 hrs by Western blot analysis; type: cell-based
MDA-MB-231 [17] = assay: Induction of cell cycle arrest in human MDA-MB-231 cells assessed as S phase cells at 300 nM incubated for 24 hrs by PI staining based flow cytometric analysis (reference value: 9.64 to 10.79%); type: functional
[18] = target: Eukaryotic peptide chain release factor GTP-binding subunit ERF3A (Homo sapiens) (UniProt P15170); assay: Induction of GSPT1 degradation in human MDA-MB-231 cells at 0.016 to 10 nM incubated for 24 hrs by Western blot analysis; type: cell-based; conditions: dose 0.016-10 nM
MDA-MB-231 [19] = assay: Induction of apoptosis in human MDA-MB-231 cells assessed as late apoptotic cells at 33.3 nM incubated for 48 hrs by Annexin V-PE staining based flow cytometric analysis (reference value: 0.32 to 0.82%); type: functional
MDA-MB-231 [20] = assay: Induction of apoptosis in human MDA-MB-231 cells assessed as downregulation of caspase-9 expression by Western blot analysis; type: functional, cell-based; conditions: dose 11.1-300 nM
[21] = Toxicity in Balb/c nude mouse xenografted with human MDA-MB-231 cells assessed as mortality at 10 to 20 mg/kg, ip administered for 22 days and measured 24 hrs post last dose; type: organism-based; conditions: in vivo, 552 h, dose 10-20 mg/kg, time 23 day
MDA-MB-231 [22] = assay: Induction of cell cycle arrest in human MDA-MB-231 cells assessed as accumulation of cell at G2/M phase at 300 nM incubated for 24 hrs by PI staining based flow cytometric analysis (reference value: 24.34 to 24.44%); type: functional
Homo sapiens [23] = species on record: Homo sapiens; assay: Antitumor activity against patient-derived breast cancer organoid assessed as decrease in structure density at 5 uM incubated for 120 hrs by bright-field imaging microscopic analysis; type: functional, tissue-based
[24] = target: T1, Protein cereblon/Tyrosine-protein kinase receptor UFO; assay: PROTAC activity at CRBN/AXL in human MDA-MB-436 cells expressing AXL assessed as induction of AXL degradation at 1.6 to 1000 nM incubated for 24 hrs by Western blot analysis; type: cell-based; conditions: dose 1.6-1000 nM
MDA-MB-231 [25] = assay: Antiproliferative activity against human MDA-MB-231 cells assessed as reduction in cell viability preincubated with N-(4-((6,7-dimethoxyquinazolin-4-yl)oxy)-3-fluorophenyl)-6-ethyl-1,2-dimethyl-4-oxo-1,4-dihydroquinoline-3-carboxamide for 6 hrs followed by compound treatment and measured after 24 hrs by CCK8 assay; type: functional, cell-based
[26] = target: Zinc finger protein Aiolos (Homo sapiens) (UniProt Q9UKT9); assay: Induction of IKZF3 degradation in human MDA-MB-231 cells at 10 uM incubated for 24 hrs by Western blot analysis; type: cell-based
MDA-MB-231 [27] = assay: Induction of cell cycle arrest in human MDA-MB-231 cells assessed as G0/G1 phase cells at 100 nM incubated for 24 hrs by PI staining based flow cytometric analysis (reference value: 63.32 to 64.94%); type: functional
MDA-MB-231 [28] = assay: Induction of cell cycle arrest in human MDA-MB-231 cells assessed as G0/G1 phase cells at 33.3 nM incubated for 24 hrs by PI staining based flow cytometric analysis (reference value: 63.32 to 64.94%); type: functional
MDA-MB-231 [29] = assay: Induction of apoptosis in human MDA-MB-231 cells assessed as viable cells at 33.3 nM incubated for 48 hrs by Annexin V-PE staining based flow cytometric analysis (reference value: 92.59 to 92.71%); type: functional; conditions: read-out: Activity
MDA-MB-231 [30] = assay: Induction of cell cycle arrest in human MDA-MB-231 cells assessed as decrease in CDK2 level at 11.1 to 300 nM by Western blot analysis; type: functional, cell-based; conditions: dose 11.1-300 nM
[31] = target: T1, Protein cereblon/Tyrosine-protein kinase receptor UFO; assay: PROTAC activity at CRBN/AXL in human MDA-MB-231 cells assessed as induction of AXL degradation by measuring maximal efficacy at 0.08 uM incubated for 24 hrs by Western blot analysis relative to control; type: cell-based

T1 sequence (P30530 26-894 limits assumed): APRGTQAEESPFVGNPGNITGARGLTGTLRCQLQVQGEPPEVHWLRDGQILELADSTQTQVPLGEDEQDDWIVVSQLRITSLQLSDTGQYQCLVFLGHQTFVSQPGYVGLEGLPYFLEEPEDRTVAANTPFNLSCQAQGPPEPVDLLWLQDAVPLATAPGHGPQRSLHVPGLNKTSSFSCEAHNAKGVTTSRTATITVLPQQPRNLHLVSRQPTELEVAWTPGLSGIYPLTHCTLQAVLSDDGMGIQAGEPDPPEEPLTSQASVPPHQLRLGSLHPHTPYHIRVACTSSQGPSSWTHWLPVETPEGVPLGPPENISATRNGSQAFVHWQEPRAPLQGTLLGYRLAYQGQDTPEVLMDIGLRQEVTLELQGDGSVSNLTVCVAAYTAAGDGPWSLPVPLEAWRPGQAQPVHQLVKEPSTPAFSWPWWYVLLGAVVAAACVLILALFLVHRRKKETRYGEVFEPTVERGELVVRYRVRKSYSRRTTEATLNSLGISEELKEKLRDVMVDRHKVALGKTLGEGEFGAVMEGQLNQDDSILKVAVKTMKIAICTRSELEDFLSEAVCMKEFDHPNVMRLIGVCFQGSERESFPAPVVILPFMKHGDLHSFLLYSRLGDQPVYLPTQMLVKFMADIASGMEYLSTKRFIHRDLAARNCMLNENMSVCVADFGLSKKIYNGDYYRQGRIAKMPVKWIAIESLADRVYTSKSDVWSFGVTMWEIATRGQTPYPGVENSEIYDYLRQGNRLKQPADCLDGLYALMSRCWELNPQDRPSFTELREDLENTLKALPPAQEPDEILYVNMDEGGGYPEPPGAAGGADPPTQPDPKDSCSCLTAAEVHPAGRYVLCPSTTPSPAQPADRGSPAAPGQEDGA
T1 sequence (Q96SW2 whole entry partner): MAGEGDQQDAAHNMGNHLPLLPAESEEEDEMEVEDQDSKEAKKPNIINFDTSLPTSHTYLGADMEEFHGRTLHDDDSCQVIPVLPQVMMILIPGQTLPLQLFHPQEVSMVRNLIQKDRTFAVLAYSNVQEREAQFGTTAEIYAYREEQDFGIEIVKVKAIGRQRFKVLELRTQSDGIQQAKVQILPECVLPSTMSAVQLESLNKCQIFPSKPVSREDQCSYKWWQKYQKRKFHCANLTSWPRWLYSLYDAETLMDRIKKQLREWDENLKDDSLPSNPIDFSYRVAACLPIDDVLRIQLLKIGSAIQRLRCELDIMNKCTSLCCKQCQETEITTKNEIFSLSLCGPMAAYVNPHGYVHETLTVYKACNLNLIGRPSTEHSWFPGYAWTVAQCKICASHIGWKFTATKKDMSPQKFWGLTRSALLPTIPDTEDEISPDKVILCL
Chain of Eukaryotic peptide chain release factor GTP-binding subunit ERF3A (Homo sapiens) (P15170 whole entry): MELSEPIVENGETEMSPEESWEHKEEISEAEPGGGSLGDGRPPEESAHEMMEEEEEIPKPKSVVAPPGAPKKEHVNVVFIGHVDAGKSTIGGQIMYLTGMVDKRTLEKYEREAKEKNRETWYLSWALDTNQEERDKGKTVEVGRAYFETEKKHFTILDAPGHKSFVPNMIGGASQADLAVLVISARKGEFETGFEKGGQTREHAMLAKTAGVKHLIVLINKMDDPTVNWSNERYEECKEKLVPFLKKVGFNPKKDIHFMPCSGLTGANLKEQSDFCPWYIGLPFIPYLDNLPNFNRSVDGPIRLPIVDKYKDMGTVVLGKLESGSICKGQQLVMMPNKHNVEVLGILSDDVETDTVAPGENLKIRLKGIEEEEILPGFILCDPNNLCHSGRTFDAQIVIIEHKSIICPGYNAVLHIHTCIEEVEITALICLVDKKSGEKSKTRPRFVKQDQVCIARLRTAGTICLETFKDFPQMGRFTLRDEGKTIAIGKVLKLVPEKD
Chain of Zinc finger protein Aiolos (Homo sapiens) (Q9UKT9 whole entry): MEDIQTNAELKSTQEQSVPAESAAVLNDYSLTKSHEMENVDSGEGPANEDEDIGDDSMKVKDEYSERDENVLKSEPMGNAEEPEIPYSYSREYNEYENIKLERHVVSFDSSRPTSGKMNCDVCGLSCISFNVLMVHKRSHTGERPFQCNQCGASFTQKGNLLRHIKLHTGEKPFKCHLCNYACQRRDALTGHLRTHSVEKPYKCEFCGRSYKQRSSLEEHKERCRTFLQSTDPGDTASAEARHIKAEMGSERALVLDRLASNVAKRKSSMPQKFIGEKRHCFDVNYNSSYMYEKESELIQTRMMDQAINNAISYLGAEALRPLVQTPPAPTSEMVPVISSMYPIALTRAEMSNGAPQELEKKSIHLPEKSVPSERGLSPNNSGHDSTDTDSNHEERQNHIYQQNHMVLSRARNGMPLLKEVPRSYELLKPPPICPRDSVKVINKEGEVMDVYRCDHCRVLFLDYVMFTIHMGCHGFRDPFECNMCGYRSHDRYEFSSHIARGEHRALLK

## CCc1ccc2c(c1)c(=O)c(C(=O)Nc1ccc(Oc3ncnc4cc(OCCCCCC(=O)Nc5ccc6c(c5)CN(C5CCC(=O)NC5=O)C6=O)c(OC)cc34)c(F)c1)c(C)n2C (stereo unspecified)
MDA-MB-231 [1]
  Activity: 31.16%
MDA-MB-231 [2]
  inhibition: Active
MDA-MB-231 [3]
  Activity: 1.17%
MDA-MB-231 [4]
  Activity: 1.2%
[5]
  T1/2: 8 h
[6]
  Activity: inactive
[7]
  Activity: Active
MDA-MB-231 [8]
  inhibition: Dose-Dependent Effect
[9]
  Activity: Non-Toxic
[10]
  IC50: 20 nM
Homo sapiens [11]
  Activity: Active
MDA-MB-231 [12]
  Activity: 47.51%
MDA-MB-231 [13]
  Activity: Active
MDA-MB-231 [14]
  Activity: 20.49%
MDA-MB-231 [15]
  Activity: 0.88%
[16]
  Activity: inactive
MDA-MB-231 [17]
  Activity: 16.29%
[18]
  Activity: Active
MDA-MB-231 [19]
  Activity: 0.56%
MDA-MB-231 [20]
  Activity: Dose-Dependent Effect
[21]
  Activity: Non-Toxic
MDA-MB-231 [22]
  Activity: 29.55%
Homo sapiens [23]
  Activity: Active
[24]
  Activity: Active
MDA-MB-231 [25]
  Activity: inactive
[26]
  Activity: inactive
MDA-MB-231 [27]
  Activity: 46.81%
MDA-MB-231 [28]
  Activity: 63.32%
MDA-MB-231 [29]
  viability at 0.0333 µM: 91.5%
MDA-MB-231 [30]
  Activity: Active
[31]
  Emax: 80.5%
